The Ki is a measure of affinity in units of concentration, obtained from inhibition or displacement.

Our source for the Ki values is US8461328B2, “Tricyclic heterocyclic compounds, compositions and methods of use thereof” (Genentech, Inc., priority 2010, dated 2013).

Holding throughout (format): biochemical
One test deals with T1, JAK1 (Homo sapiens, UniProt P23458).
T1 construct: made in house; host or cells: SF9 insect cells (baculovirus)
The test can be described thus: JAK1 inhibition (Table 4). The following applies: read-out: JAK1 Ki.

A further test has as its target T2, TYK2 (Homo sapiens, UniProt P29597).
T2 construct: made in house; host or cells: SF9 insect cells (baculovirus)
T2 sequence (P29597 873-1187): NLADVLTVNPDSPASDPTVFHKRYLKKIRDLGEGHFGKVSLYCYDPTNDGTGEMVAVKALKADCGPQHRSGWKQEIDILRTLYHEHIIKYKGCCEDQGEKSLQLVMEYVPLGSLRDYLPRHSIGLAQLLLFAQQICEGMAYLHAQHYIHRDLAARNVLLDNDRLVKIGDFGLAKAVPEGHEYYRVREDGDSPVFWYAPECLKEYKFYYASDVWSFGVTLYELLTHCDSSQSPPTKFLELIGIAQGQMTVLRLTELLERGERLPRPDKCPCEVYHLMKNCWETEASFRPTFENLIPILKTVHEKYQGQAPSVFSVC
Description: TYK2 inhibition (Table 4).

A further test deals with T3, JAK2 (Homo sapiens, UniProt O60674).
T3 construct: made in house; host or cells: SF9 insect cells (baculovirus)
The test can be described thus: JAK2 inhibition (Table 4). The settings on record: read-out: JAK2 Ki.

A further test addresses T4, JAK3 (Homo sapiens, UniProt P52333).
T4 construct: made in house; host or cells: SF9 insect cells (baculovirus)
The test can be described thus: JAK3 inhibition (Table 4). The settings on record: read-out: JAK3 Ki.

T4 sequence (P52333 783-1124): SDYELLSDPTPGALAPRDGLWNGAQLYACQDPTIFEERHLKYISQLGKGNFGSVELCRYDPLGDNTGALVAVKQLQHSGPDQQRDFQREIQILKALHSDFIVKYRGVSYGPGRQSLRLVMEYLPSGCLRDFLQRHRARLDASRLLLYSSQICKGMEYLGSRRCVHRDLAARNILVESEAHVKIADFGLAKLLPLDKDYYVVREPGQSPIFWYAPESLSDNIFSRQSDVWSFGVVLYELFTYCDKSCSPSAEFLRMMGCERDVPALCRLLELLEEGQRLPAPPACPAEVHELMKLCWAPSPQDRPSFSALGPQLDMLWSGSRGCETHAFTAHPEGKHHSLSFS
T3 sequence (O60674 812-1132): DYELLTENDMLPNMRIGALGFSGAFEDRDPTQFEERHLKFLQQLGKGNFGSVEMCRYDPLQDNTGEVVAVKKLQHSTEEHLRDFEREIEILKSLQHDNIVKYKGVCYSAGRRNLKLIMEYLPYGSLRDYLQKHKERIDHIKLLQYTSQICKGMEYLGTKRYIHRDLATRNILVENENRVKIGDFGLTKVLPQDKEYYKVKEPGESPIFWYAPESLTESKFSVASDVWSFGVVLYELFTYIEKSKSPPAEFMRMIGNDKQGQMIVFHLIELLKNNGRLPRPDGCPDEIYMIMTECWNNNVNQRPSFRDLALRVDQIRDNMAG
T1 sequence (P23458 852-1154): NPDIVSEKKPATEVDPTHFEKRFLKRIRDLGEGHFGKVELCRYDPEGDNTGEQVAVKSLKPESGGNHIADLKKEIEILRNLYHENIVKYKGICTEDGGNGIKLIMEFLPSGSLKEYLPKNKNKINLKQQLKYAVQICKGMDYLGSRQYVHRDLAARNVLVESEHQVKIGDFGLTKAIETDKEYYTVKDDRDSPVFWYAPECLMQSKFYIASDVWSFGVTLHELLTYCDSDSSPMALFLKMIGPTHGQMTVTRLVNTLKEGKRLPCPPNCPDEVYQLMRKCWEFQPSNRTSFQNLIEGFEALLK

Consider `CC(O)c1nc2cnc3[nH]ccc3c2n1C1CC2CCC(C1)N2` (stereo not drawn) [Example 919, 1-[1-(8-Aza-bicyclo[3.2.1]oct-3-yl)-1,6-dihydro-1,3,5,6-tetraaza-as-indacen-2-yl]-ethanol], for which the inhibition constant (Ki) at JAK1 is 10.6 nM; on TYK2 it was 264 nM; on JAK2 it was 437 nM; on JAK3 it was 476 nM.
For `c1cc2c(ncc3ncn(C4CCCOC4)c32)[nH]1` (single isomer, unassigned) [Example 465, 1-(Tetrahydro-pyran-3-yl)-1,6-dihydro-1,3,5,6-tetraaza-as-indacene], the inhibition constant (Ki) at JAK1 amounted to 23.5 nM; at TYK2, 70.5 nM; at JAK2, 49.9 nM; at JAK3, 50.8 nM.
The matching figures for `Cn1cncc1CN[C@H]1CC[C@H](n2cnc3cnc4[nH]ccc4c32)CC1` [Example 575, trans (3-Methyl-3H-imidazol-4-ylmethyl)-[4-(6H-1,3,5,6-tetraaza-as-indacen-1-yl)-cyclohexyl]-amine]: 7.17 nM, 44.7 nM, 34 nM and 206 nM.
For `c1ncc(CN2CCC[C@@H](n3cnc4cnc5[nH]ccc5c43)C2)cn1` [Example 42, 1-((R)-1-Pyrimidin-5-ylmethyl-piperidin-3-yl)-1,6-dihydro-1,3,5,6-tetraaza-as-indacene], the inhibition constant (Ki) on JAK1 is 14.9 nM; at TYK2, 122 nM; at JAK2, 41 nM; at JAK3, 93 nM.
For `Cc1nc(CN2CCC(n3c([C@@H](C)O)nc4cnc5[nH]ccc5c43)CC2)c[nH]1` [Example 902, (R)-1-{1-[1-(2-Methyl-1H-imidazol-4-ylmethyl)-piperidin-4-yl]-1,6-dihydro-1,3,5,6-tetraaza-as-indacen-2-yl}-ethanol], in that order: 25.5 nM, 2670 nM, 1230 nM and 478 nM.
For `CC(C)C(=O)NCCc1nc2cnc3[nH]ccc3c2n1C1CCN(CCC#N)CC1` [Example 378, N-(2-{1-[1-(2-Cyano-ethyl)-piperidin-4-yl]-1,6-dihydro-1,3,5,6-tetraaza-as-indacen-2-yl}-ethyl)-isobutyramide], in that order: 5.03 nM, 226 nM, 48.4 nM and 61.3 nM.
Turning to `CC1(n2cnc3cnc4[nH]ccc4c32)CCN(Cc2ccnc(C#N)c2)CC1` [Example 756, 4-[4-Methyl-4-(6H-1,3,5,6-tetraaza-as-indacen-1-yl)-piperidin-1-ylmethyl]-pyridine-2-carbonitrile], the inhibition constant (Ki) came out at 36.1 nM on JAK1, 1120 nM at TYK2, 259 nM on JAK2 and 617 nM at JAK3.
For `O[C@@H]1CC[C@H](n2cnc3cnc4[nH]ccc4c32)C1` [Example 710, (1R,3S)-3-(6H-1,2,3,5,6-Tetraaza-as-indacen-1-yl)-cyclopentanol], in that order: 6.85 nM, 50.6 nM, 34.3 nM and 45 nM.
In the case of `CN(C)CCOC(=O)N[C@H]1CC[C@H](n2cnc3cnc4[nH]ccc4c32)CC1` [Example 358, [4-(6H-1,3,5,6-Tetraaza-as-indacen-1-yl)-cyclohexyl]-carbamic acid 2-dimethylamino-ethyl ester], the Ki at JAK1 is 22.2 nM; on TYK2 it was 147 nM; on JAK2, 82.6 nM; at JAK3, 434 nM.
For `Cc1nc2cnc3[nH]ccc3c2n1C1CCN(C(=O)NCCC(F)(F)F)CC1` [Example 765, 4-(2-Methyl-6H-1,3,5,6-tetraaza-as-indacen-1-yl)-piperidine-1-carboxylic acid (3,3,3-trifluoro-propyl)-amide], in that order: 275 nM, 2840 nM, 872 nM and 2210 nM.
The matching figures for `CN(C)C(=O)CN1CCC(n2cnc3cnc4[nH]ccc4c32)CC1` [Example 62, N,N-Dimethyl-2-[4-(6H-1,3,5,6-tetraaza-as-indacen-1-yl)-piperidin-1-yl]acetamide]: 21.4 nM, 225 nM, 39.7 nM and 391 nM.
On to `O=C(NCc1nc2cnc3[nH]ccc3c2n1C1CCCCC1)C1CCC1` [Example 924, Cyclobutanecarboxylic acid (1-cyclohyl-1,6-dihydro-1,3,5,6-tetraaza-as-indacen-2-ylmethyl)-amide], for which the Ki at JAK1 was 17.7 nM; at TYK2, 72.5 nM; on JAK2, 95.7 nM; at JAK3, 54.1 nM.
Regarding `C[C@@H](O)c1nc2cnc3[nH]ccc3c2n1[C@H]1CC[C@H](N(C)CC(F)(F)F)CC1` [Example 617, Trans (R)-1-(1-{4-[methyl-(2,2,2-trifluoro-ethyl)-amino]-cyclohexyl}-1,6-dihydro-1,2,3,5,6-tetraaza-as-indacen-2-yl)-ethanol], the Ki at JAK1 was found to be 11.9 nM; at TYK2, 22.3 nM; on JAK2, 38.7 nM; on JAK3, 147 nM.
For `C[C@@H](O)c1nc2cnc3[nH]ccc3c2n1C1CCC(C#N)CC1` (stereo partly drawn) [Example 776, 4-[2-((R)-1-Hydroxy-ethyl)-6H-1,3,5,6-tetraaza-as-indacen-1-yl]-cyclohexanecarbonitrile], in that order: 0.99 nM, 0.73 nM, 10.4 nM and 1.88 nM.
`FC(F)(F)CNC1CCC(n2nnc3cnc4[nH]ccc4c32)C1` (racemic) [Example 718, [3-(6H-1,2,3,5,6-Pentaaza-as-indacen-1-yl)-cyclopentyl]-(2,2,2-trifluoro-ethyl)-amine]: the Ki on JAK1 was 10.3 nM; on TYK2, 83.1 nM; at JAK2 it was 20.8 nM; on JAK3 it was 143 nM.
For `O=C(Cc1nc2cnc3[nH]ccc3c2n1C1CCCOC1)NCCn1ccnc1` (racemic) [Example 975, N-(2-Imidazol-1-yl-ethyl)-2-[1-(tetrahydro-pyran-3-yl)-1,6-dihydro-1,3,5,6-tetraaza-as-indacen-2-yl]-acetamide], in that order: 44.1 nM, 406 nM, 206 nM and 211 nM.
For `N#Cc1ccc(N[C@H]2CC[C@H](n3cnc4cnc5[nH]ccc5c43)CC2)nc1` [Example 176, Trans 6-[4-(6H-1,2,3,5,6-Tetraaza-as-indacen-1-yl)-cyclohexylamino]-nicotinonitrile], in that order: 2.16 nM, 24.3 nM, 7.05 nM and 95.8 nM.
The matching figures for `c1cc2c(ncc3ncn(C4CCc5[nH]ncc5C4)c32)[nH]1` (stereo not drawn) [Example 198, 1-(4,5,6,7-Tetrahydro-1H-indazol-5-yl)-1,6-dihydro-1,2,3,5,6-tetraaza-as-indacene]: 6.38 nM, 41.4 nM, 10.2 nM and 25.7 nM.
In the case of `O=C(Cc1nc2cnc3[nH]ccc3c2n1C1CCN(Cc2ccccc2)CC1)N1CC(F)C1` [Example 258, 2-[1-(1-Benzyl-piperidin-4-yl)-1,6-dihydro-1,3,5,6-tetraaza-as-indacen-2-yl)-1-(3-fluoro-azetidin-1-yl)-ethanone], the Ki on JAK1 was found to be 28.8 nM; at TYK2, 1810 nM; at JAK2 it was 125 nM; on JAK3 it was 14.4 nM.
For `CC(CC#N)N1CCC(n2c(C3CCC3)nc3cnc4[nH]ccc4c32)CC1` (racemic) [Example 392, 3-[4-(2-Cyclobutyl-6H-1,3,5,6-tetraaza-as-indacen-1-yl)-piperidin-1-yl]-butyronitrile], in that order: 6.67 nM, 128 nM, 16.7 nM and 33.9 nM.
For `CC(C)(C)OC(=O)N1CCC(C)(n2cnc3cnc4[nH]ccc4c32)CC1` [Example 132, 4-Methyl-4-(6H-1,2,3,5,6-tetraaza-as-indacen-1-yl)-piperidine-1-carboxylic acid tert-butyl ester], in that order: 25.4 nM, 696 nM, 193 nM and 1120 nM.
The matching figures for `Cc1cc(Cc2nc3cnc4[nH]ccc4c3n2C2CCOCC2)on1` [Example 472, 2-(3-Methyl-isoxazol-5-ylmethyl)-1-(tetrahydro-pyran-4-yl)-1,6-dihydro-1,3,5,6-tetraaza-as-indacene]: 57.3 nM, 389 nM, 694 nM and 405 nM.
With `CC(C)NC(=O)Cc1nc2cnc3[nH]ccc3c2n1C1CCCOC1` (racemic) [Example 963, N-Isopropyl-2-[1-(tetrahydro-pyran-3-yl)-1,6-dihydro-1,3,5,6-tetraaza-as-indacen-2-yl]-acetamide], the inhibition constant Ki on JAK1 is 43.2 nM; on TYK2, 373 nM; at JAK2, 190 nM; at JAK3 it was 119 nM.
In the case of `N#CCCN1CCC(n2c(C(F)(F)F)nc3cnc4[nH]ccc4c32)CC1` [Example 256, 3-[4-(-2-Trifluoromethyl-6H-1,3,5,6-tetraaza-as-indacen-1-yl)-piperidin-1-yl]-propionitrile], the Ki at JAK1 amounted to 7.86 nM; on TYK2, 68.8 nM; at JAK2, 9.21 nM; on JAK3, 9.96 nM.
